50 molecules from publication PMC7529893, “Structural basis for substrate recognition and chemical inhibition of oncogenic MAGE ubiquitin ligases” (Nature Communications, 2020) can be followed below.

Like-named read-outs stand apart in the source and are kept apart here. Some results are limits rather than exact numbers.

The target in the assay is T1, MAGE-A11:PCF11 interaction (GST-MAGE-A11 MHD and FAM-PCF11_4) (Homo sapiens, UniProt P43364).
T1 construct: GST-MAGE-A11 MHD (human MAGE-A11 MHD amino acid 218-429); made in house; host or cells: E. coli BL21(DE3)
T1 sequence (P43364 218-429): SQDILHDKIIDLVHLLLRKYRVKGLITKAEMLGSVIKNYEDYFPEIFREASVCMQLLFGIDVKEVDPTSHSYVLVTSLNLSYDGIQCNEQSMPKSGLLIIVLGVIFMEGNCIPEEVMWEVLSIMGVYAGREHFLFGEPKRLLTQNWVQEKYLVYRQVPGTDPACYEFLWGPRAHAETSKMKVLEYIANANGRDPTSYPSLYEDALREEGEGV
As to the kind of experiment: TR-FRET dose response test of compounds for disruption of MAGE-A11:PCF11 binding. A digest of the protocol:
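Competition of compounds against binding of FAM-PCF11_4 peptide to GST-MAGE-A11 MHD, detected with Tb-anti-GST, in 50 mM Tris pH 7.5, 20 mM MgCl2, 0.1 mg/ml BSA, 1 mM DTT. 90 min at ~25 °C; 520/490 nm emission ratio (340 nm excitation) fitted for IC50.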
A general note: In TR-FRET formats the signal depends on donor and acceptor labels being close together.

The mark [1] stands for this setting: Supplementary Data 3, 59 quinoline compounds, read-out: TR-FRET IC50.
Setting [2] is: Dose response TR-FRET screening of nine scaffold groups against MAGE-A11:PCF11, read-out: consensus IC50.

In general, IC50 refers to the concentration that inhibits the measured activity by half. In the case of `FC(F)(F)c1ccc2c(NCCCNCc3ccc[nH]3)ccnc2c1` [SJ000361105-1, FC(F)(F)c1ccc2c(NCCCNCc3ccc[nH]3)ccnc2c1], under setting [1], the IC50 amounted to 33 µM.
For `CCCCCCNCCCNc1ccnc2cc(C(F)(F)F)ccc12` [SJ000361124-1], the IC50 under setting [1] was found to be 57.6 µM.
As to `Cc1cc(C)c(CN(CCCNc2ccnc3cc(Cl)ccc23)Cc2ccccc2)c(C)c1` [SJ000361169-2, Cc1cc(C)c(CN(CCCNc2ccnc3cc(Cl)ccc23)Cc4ccccc4)c(C)c1], under setting [1], the IC50 was above 70 µM.
With `Clc1ccc2c(NCCCCN(Cc3ccccc3)CC3CCCCC3)ccnc2c1` [SJ000361194-2, Clc1ccc2c(NCCCCN(CC3CCCCC3)Cc4ccccc4)ccnc2c1], under setting [1], the IC50 is above 70 µM.
Regarding `Clc1ccc(CN(CCCCNc2ccnc3cc(Cl)ccc23)Cc2ccccc2)c(Cl)c1` [SJ000361207-2, Clc1ccc(CN(CCCCNc2ccnc3cc(Cl)ccc23)Cc4ccccc4)c(Cl)c1], the IC50 under setting [1] is above 70 µM.
Consider `CCC(C)CN(CCCCNc1ccnc2cc(Cl)ccc12)Cc1ccccc1` (centres unmarked) [SJ000361208-2, CCC(C)CN(CCCCNc1ccnc2cc(Cl)ccc12)Cc3ccccc3], for which the IC50 under setting [1] was above 70 µM.
Take `Cc1ccc(C)c(CN(CCCCNc2ccnc3cc(Cl)ccc23)Cc2ccccc2)c1` [SJ000361209-2, Cc1ccc(C)c(CN(CCCCNc2ccnc3cc(Cl)ccc23)Cc4ccccc4)c1]: the concentration for half-maximal inhibition (IC50) under setting [1] is above 70 µM.
`CCCN(CCCNc1ccnc2cc(C(F)(F)F)ccc12)Cc1ccc[nH]1` [SJ000361255-1, CCCN(CCCNc1ccnc2cc(ccc12)C(F)(F)F)Cc3ccc[nH]3]: the half-inhibitory concentration (IC50) under setting [1] was above 70 µM.
With `CCCN(CCCNc1ccnc2cc(C(F)(F)F)ccc12)CC1CC1` [SJ000361266-1, CCCN(CCCNc1ccnc2cc(ccc12)C(F)(F)F)CC3CC3], under setting [1], the IC50 was above 70 µM.
On the same count and under the same terms, the result for `CCCN(CCCNc1ccnc2cc(C(F)(F)F)ccc12)CC1CCCCC1` [SJ000361268-1, CCCN(CCCNc1ccnc2cc(ccc12)C(F)(F)F)CC3CCCCC3] reads above 70 µM; that for `CCCN(CCCNc1ccnc2cc(C(F)(F)F)ccc12)CC(CC)CC` [SJ000361269-1, CCCN(CCCNc1ccnc2cc(ccc12)C(F)(F)F)CC(CC)CC], above 70 µM.
For the molecule `CCCCCN(CCC)CCCNc1ccnc2cc(C(F)(F)F)ccc12` [SJ000361271-1, CCCCCN(CCC)CCCNc1ccnc2cc(ccc12)C(F)(F)F], the IC50 under setting [1] is above 70 µM.
Regarding `O=C1OCC(c2ccc(OC(F)F)cc2)=C1c1ccc([N+](=O)[O-])cc1` [SJ000368145-1], under setting [2], the IC50 is 40.8 µM.
As to `CCCCCn1c(-c2ccc(F)c(Br)c2)nc2c1c(=O)[nH]c(=O)n2CCCC` [SJ000378900-1], the IC50 under setting [2] stood at 2.64 µM.
`C=C(C)CSc1nc2cc(-c3ccccc3)sc2c(=O)n1CCN1CCOCC1` [SJ000456069-1]: the half-maximal inhibitory concentration (IC50) under setting [2] is 0.861 µM.
Turning to `Clc1ccc2c(NCCCN(Cc3ccccc3)Cc3ccc4[nH]ccc4c3)ccnc2c1` [SJ000520430-1, Clc1ccc2c(NCCCN(Cc3ccccc3)Cc4ccc5[nH]ccc5c4)ccnc2c1], under setting [1], the IC50 amounted to 41.7 µM.
On the same count and under the same terms, for `Clc1ccc2c(NCCCN(Cc3ccccc3)Cc3c[nH]c4ccccc34)ccnc2c1` [SJ000520433-1, Clc1ccc2c(NCCCN(Cc3ccccc3)Cc4c[nH]c5ccccc45)ccnc2c1] the value was above 70 µM; for `Clc1ccc2c(NCCCCN(Cc3ccccc3)Cc3ccc4[nH]ccc4c3)ccnc2c1` [SJ000520434-1, Clc1ccc2c(NCCCCN(Cc3ccccc3)Cc4ccc5[nH]ccc5c4)ccnc2c1], 23.4 µM; for `COc1ccc(C(F)(F)F)cc1CN(CCCCNc1ccnc2cc(Cl)ccc12)Cc1ccccc1` [SJ000520444-1, COc1ccc(cc1CN(CCCCNc2ccnc3cc(Cl)ccc23)Cc4ccccc4)C(F)(F)F], above 70 µM.
Still for that read-out and setting: for `Clc1ccc2c(NCCCCN(Cc3ccccc3)Cc3csc4ccccc34)ccnc2c1` [SJ000520446-1, Clc1ccc2c(NCCCCN(Cc3ccccc3)Cc4csc5ccccc45)ccnc2c1] the value was above 70 µM; for `Cc1ccc(F)cc1CN(CCCCNc1ccnc2cc(Cl)ccc12)Cc1ccccc1` [SJ000520449-1, Cc1ccc(F)cc1CN(CCCCNc2ccnc3cc(Cl)ccc23)Cc4ccccc4], above 70 µM; for `FC(F)(F)Oc1ccc(CN(CCCCNc2ccnc3cc(Cl)ccc23)Cc2ccccc2)cc1` [SJ000520451-1, FC(F)(F)Oc1ccc(CN(CCCCNc2ccnc3cc(Cl)ccc23)Cc4ccccc4)cc1], above 70 µM.
On the same count and under the same terms, for `FC(F)(F)Oc1cccc(CN(CCCCNc2ccnc3cc(Cl)ccc23)Cc2ccccc2)c1` [SJ000520457-1, FC(F)(F)Oc1cccc(CN(CCCCNc2ccnc3cc(Cl)ccc23)Cc4ccccc4)c1] the value was above 70 µM; for `FC(F)(F)Oc1ccccc1CN(CCCCNc1ccnc2cc(Cl)ccc12)Cc1ccccc1` [SJ000520459-1, FC(F)(F)Oc1ccccc1CN(CCCCNc2ccnc3cc(Cl)ccc23)Cc4ccccc4], above 70 µM.
As to `CCCN(CCCNc1ccnc2cc(C(F)(F)F)ccc12)CCC(C)(C)C` [SJ000520476-1, CCCN(CCCNc1ccnc2cc(ccc12)C(F)(F)F)CCC(C)(C)C], under setting [1], the IC50 was above 70 µM.
In the case of `Clc1ccc2c(NCCCNCc3ccc4[nH]ccc4c3)ccnc2c1` [SJ000520909-2], the IC50 under setting [2] was found to be 67.1 µM.
As to `Cc1cc(C)c(CNCCCNc2ccnc3cc(Cl)ccc23)c(C)c1` [SJ000520911-2], the IC50 under setting [2] is 68.1 µM.
`CCCN(CCCNc1ccnc2cc(C(F)(F)F)ccc12)Cc1ccc(CC)cc1` [SJ000521009-2, CCCN(CCCNc1ccnc2cc(ccc12)C(F)(F)F)Cc3ccc(CC)cc3]: the IC50 under setting [1] was above 70 µM.
Regarding `COC(=O)CCCCCNCCCNc1ccnc2cc(Cl)ccc12` [SJ000521021-1], the IC50 under setting [1] amounted to 31.4 µM.
On the same count and under the same terms, the result for `Clc1ccc2c(NCCCNCc3cc4ccccc4s3)ccnc2c1` [SJ000521032-1, Clc1ccc2c(NCCCNCc3cc4ccccc4s3)ccnc2c1] reads above 70 µM.
As for `Clc1ccc2c(NCCCNCc3csc4ccccc34)ccnc2c1` [SJ000521033-1, Clc1ccc2c(NCCCNCc3csc4ccccc34)ccnc2c1], the IC50 under setting [1] was above 70 µM.
As to `FC(F)(F)c1ccc2c(NCCCNCc3ccc4[nH]ccc4c3)ccnc2c1` [SJ000521054-1], the IC50 under setting [2] amounted to 0.397 µM.
`FC(F)(F)c1ccc2c(NCCCNCc3cc(Br)cs3)ccnc2c1` [SJ000521056-1, FC(F)(F)c1ccc2c(NCCCNCc3cc(Br)cs3)ccnc2c1]: the IC50 under setting [1] was above 70 µM.
For `FC(F)(F)c1ccc2c(NCCCNCc3cc4ccccc4s3)ccnc2c1` [SJ000521060-1, FC(F)(F)c1ccc2c(NCCCNCc3cc4ccccc4s3)ccnc2c1], the half-maximal inhibitory concentration (IC50) under setting [1] was above 70 µM.
For the molecule `FC(F)(F)c1ccc2c(NCCCNCc3csc4ccccc34)ccnc2c1` [SJ000521061-1, FC(F)(F)c1ccc2c(NCCCNCc3csc4ccccc34)ccnc2c1], under setting [1], the IC50 is above 70 µM.
On to `COc1ccc(C(F)(F)F)cc1CNCCCNc1ccnc2cc(C(F)(F)F)ccc12` [SJ000521064-1], for which, under setting [2], the IC50 worked out at 69.1 µM.
As for `CCc1ccc(CNCCCNc2ccnc3cc(C(F)(F)F)ccc23)cc1` [SJ000521067-1], under setting [2], the IC50 was 40.9 µM.
`Fc1ccc(CN(CCCCNc2ccnc3cc(Cl)ccc23)Cc2ccccc2)cc1` [SJ000522725-1, Fc1ccc(CN(CCCCNc2ccnc3cc(Cl)ccc23)Cc4ccccc4)cc1]: the IC50 under setting [1] was above 70 µM.
Turning to `CCCN(CCCNc1c2ccc(Cl)cc2nc2ccc(OC)cc12)Cc1ccc2[nH]ccc2c1` [SJ000522732-2, CCCN(CCCNc1c2ccc(Cl)cc2nc3ccc(OC)cc13)Cc4ccc5[nH]ccc5c4], the IC50 under setting [1] was above 70 µM.
`CCCN(CCCNc1ccnc2cc(Cl)ccc12)Cc1ccc2[nH]ccc2c1` [SJ000522746-2, CCCN(CCCNc1ccnc2cc(Cl)ccc12)Cc3ccc4[nH]ccc4c3]: the IC50 under setting [1] is 2.8 µM.
Regarding `CCCN(CCCNc1ccnc2cc(Cl)ccc12)Cc1c(C)cc(C)cc1C` [SJ000522749-1, CCCN(CCCNc1ccnc2cc(Cl)ccc12)Cc3c(C)cc(C)cc3C], under setting [1], the IC50 was above 70 µM.
Regarding `CCCN(CCCNc1ccnc2cc(Cl)ccc12)Cc1ccc(CC)cc1` [SJ000523001-1, CCCN(CCCNc1ccnc2cc(Cl)ccc12)Cc3ccc(CC)cc3], the IC50 under setting [1] was above 70 µM.
Consider `CCCN(CCCNc1ccnc2cc(Cl)ccc12)Cc1cc(C(F)(F)F)ccc1OC` [SJ000523012-1, CCCN(CCCNc1ccnc2cc(Cl)ccc12)Cc3cc(ccc3OC)C(F)(F)F], for which the half-inhibitory concentration (IC50) under setting [1] is above 70 µM.
As to `CCCN(CCCNc1c2ccc(Cl)cc2nc2ccc(OC)cc12)Cc1c(Cl)ccc(Cl)c1Cl` [SJ000523021-1, CCCN(CCCNc1c2ccc(Cl)cc2nc3ccc(OC)cc13)Cc4c(Cl)ccc(Cl)c4Cl], under setting [1], the IC50 was above 70 µM.
Regarding `CCCN(CCCNc1ccnc2cc(Cl)ccc12)Cc1ccc(-c2ccccc2)cc1` [SJ000523039-1, CCCN(CCCNc1ccnc2cc(Cl)ccc12)Cc3ccc(cc3)c4ccccc4], the IC50 under setting [1] was above 70 µM.
Regarding `CCCN(CCCNc1ccnc2cc(Cl)ccc12)Cc1ccc2ccccc2c1` [SJ000523040-1, CCCN(CCCNc1ccnc2cc(Cl)ccc12)Cc3ccc4ccccc4c3], the IC50 under setting [1] is above 70 µM.
On to `Clc1ccc2c(NCCCNCc3ccc(-c4ccccc4)cc3)ccnc2c1` [SJ000523064-1], for which, under setting [2], the IC50 turned out to be 34.9 µM.
Regarding `Clc1cccc(-c2ccc(CNCCCNc3ccnc4cc(Cl)ccc34)o2)c1` [SJ000523069-1, Clc1cccc(c1)c2oc(CNCCCNc3ccnc4cc(Cl)ccc34)cc2], the half-inhibitory concentration (IC50) under setting [1] was above 70 µM.
As to `CCCN(CCCNc1ccnc2cc(C(F)(F)F)ccc12)Cc1ccccc1OC` [SJ000523072-1, CCCN(CCCNc1ccnc2cc(ccc12)C(F)(F)F)Cc3ccccc3OC], under setting [1], the IC50 was above 70 µM.
The same measure, in the same setting: for `CCCCCCN(CCC)CCCNc1ccnc2cc(C(F)(F)F)ccc12` [SJ000523083-1, CCCCCCN(CCC)CCCNc1ccnc2cc(ccc12)C(F)(F)F] the value was above 70 µM.
